Reference: PubChem BioAssay AID1963980 (Molecular Pharmacology Branch, DTP, NCI, 2024)
Where “and” joins values, the source holds several entries; their conditions need not be identical. Equal values may be shown once.

Tested on: 475296-252-R-J1-PDC spheroid viability
Test: Anticancer human tumor 475296-252-R-J1-PDC patient-derived rectal carcinoma cell line growth inhibition [PI3K]
Conditions: spheroids with HUVEC and MSC; for viability, T/C: stronger effect = lower value
From the text: Combinatorial screen of targeted agents with the PI3K inhibitors inavolisib, alpelisib, duvelisib, and copanlisib in multi-cell type tumor spheroids
A high-throughput screen of multi-cell type tumor spheroids was designed to identify active combinations of targeted small molecules and PI3K pathway inhibitors. Complex spheroids include a stromal component modeled by human endothelial cells (HUVEC) and fibroblasts modeled by human mesenchymal stem cells (MSCs). The concentration ranges selected for each drug and investigational agent were based upon clinically achievable concentrations if the clinical Cmax of the agent was known.
Compounds. The drugs and investigational agents: inavolisib (NSC800729), alpelisib (NSC765974), duvelisib (NSC772469), copanlisib (NSC816437), ipatasertib (NSC767898), afuresertib (NSC778305), talazoparib (NSC767125), sapanisertib (NSC764658), selumetinib (NSC741078), tovorafenib (DAY101, NSC766906), vemurafenib (NSC761431), ravoxertinib (NSC781343), sotorasib (NSC818433), MRTX1133 (NSC 836407), abemaciclib (NSC 768073), palbociclib (NSC758247), venetoclax (NSC 766270), SY5609 (NSC837396), enzalutamide (NSC755605), and darolutamide (NSC825331), were obtained from the National Cancer Institute (NCI) Developmental Therapeutics Program Chemical Repository. The FDA-approved anticancer drug set is available from the NCI Developmental Therapeutics Program. […] The stock solutions were prepared in dimethyl sulfoxide (DMSO, Sigma-Aldrich, St. Louis, MO, cat. D2650) at 800-fold the tested concentration and stored at -70 degrees C prior to their use. All drugs and investigational agents were tested over a range starting from a high concentration at or near the clinical Cmax and decreasing in half-log increments. If the clinical Cmax for an agent had not been determined, the highest concentration tested was 10 microM.
Cell Culture. All cells were maintained in an incubator at 37 degrees C and 5% CO2 with 95% humidity. The PDC lines were cultured according to standard operating procedures established by the NCI PDMR (https://pdmr.cancer.gov/sops/default.htm). All PDCs were thawed and cultured in Matrigel-coated flasks prepared with a working solution of 1X Ham's F-12 nutrient mix, without supplementation (Invitrogen, Waltham, MA, cat. 11765054), 100 U/mL penicillin-streptomycin (Invitrogen, cat. 15140122), and 2.5% Matrigel (Corning Inc., Corning, NY, cat. 354248) for the first three passages. The 354836-022-R-J1-PDC, 475296-252-R-J1-PDC, and 997726-040-R-J2-PDC lines were cultured in 6A media, which includes advanced DMEM/F-12 (Thermo Fisher Scientific, cat. 12634028), 10 mM HEPES (Thermo Fisher Scientific, cat. 15630080), 1X GlutaMAX supplement (Thermo Fisher Scientific, cat. 35050061), 0.1 mg/mL primocin (InvivoGen, San Diego, CA, cat. ant-pm-2), 10% defined fetal bovine serum, heat inactivated (HyClone Laboratories Inc., Logan, UT, cat. SH30070.03HI), 50% L-WRN conditioned media (ATCC, cat. CRL-3276), 1.25 mM N-Acetyl-L-cysteine (Sigma-Aldrich, cat. A9165), 10 mM nicotinamide (Sigma-Aldrich, cat. N0636), 1X B-27 supplement (Thermo Fisher Scientific, cat. 17504044), 1X N-2 supplement (Thermo Fisher Scientific, cat. 17502048), and 10 microM Y-27632 dihydrochloride (Tocris Bioscience, Bristol, United Kingdom, cat. 1254). The 624824-186-R-J2-PDC line was cultured in 6C/Colon 1B media, which includes all 6A media components plus 50 ng/mL human EGF recombinant protein (Thermo Fisher Scientific, cat. PHG0311). […]
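Also: spheroids exposed to agents for seven days before readout.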

Structure (SMILES): C#Cc1c(F)ccc2cc(O)cc(-c3ncc4c(N5CC6CCC(C5)N6)nc(OCC56CCCN5CC(F)C6)nc4c3F)c12 (stereo not given)
- viability, T/C (compound 0.0316 µM): 95.9% [middle of 4 runs]
- viability, T/C (compound 0.1 µM): 90.9% [middle of 4 runs]
- viability, T/C (compound 0.316 µM): 84.4% [middle of 4 runs]
- viability, T/C (compound 1 µM): 70.1% [middle of 4 runs]
- viability, T/C (compound 10 µM): 56.8% [middle of 4 runs]
- IC50 (curve of compound): 8.36 µM and > 10 µM

Structure (SMILES): C=CC(=O)N1CCN(c2nc(=O)n(-c3c(C)ccnc3C(C)C)c3nc(-c4c(O)cccc4F)c(F)cc23)C(C)C1 (stereo not given)
- viability, T/C (compound 0.1 µM): 98.7% [middle of 4 runs]
- viability, T/C (compound 0.316 µM): 97% [middle of 4 runs]
- viability, T/C (compound 1 µM): 105% [middle of 4 runs]
- viability, T/C (compound 3.16 µM): 110% [middle of 4 runs]
- viability, T/C (compound 10 µM): 110% [middle of 4 runs]
- IC50 (curve of compound): > 10 µM

Structure (SMILES): CNC(=O)c1ccc(N2C(=S)N(c3ccc(C#N)c(C(F)(F)F)c3)C(=O)C2(C)C)cc1F
- viability, T/C (compound 0.1 µM): 100% [middle of 4 runs]
- viability, T/C (compound 0.316 µM): 96.5% [middle of 4 runs]
- viability, T/C (compound 1 µM): 99.5% [middle of 4 runs]
- viability, T/C (compound 3.16 µM): 102% [middle of 4 runs]
- viability, T/C (compound 10 µM): 98.3% [middle of 4 runs]
- IC50 (curve of compound): > 10 µM

Structure (SMILES): Cn1cnc2c(F)c(Nc3ccc(Br)cc3Cl)c(C(=O)NOCCO)cc21 + CC(Nc1ccc2c(c1)OCCn1cc(N3C(=O)OCC3C(F)F)nc1-2)C(N)=O
- IC50 (curve of first compound, second compound 0.00316 µM): > 3 µM
- IC50 (curve of first compound, second compound 0.01 µM): > 3 µM
- IC50 (curve of first compound, second compound 0.0316 µM): > 3 µM
- IC50 (curve of first compound, second compound 0.1 µM): 1.21 µM
- IC50 (curve of first compound, second compound 0.316 µM): 0.415 µM
- IC50 (curve of first compound, second compound 1 µM): 0.142 µM
- viability, T/C (second compound 0.00316 µM, first compound 0.00949 µM): 96.4%
- viability, T/C (second compound 0.00316 µM, first compound 0.03 µM): 93.1%
- viability, T/C (second compound 0.00316 µM, first compound 0.0949 µM): 89%
- viability, T/C (second compound 0.00316 µM, first compound 0.3 µM): 74.8%
- viability, T/C (second compound 0.00316 µM, first compound 0.949 µM): 74.8%
- viability, T/C (second compound 0.00316 µM, first compound 3 µM): 60.8%
- viability, T/C (second compound 0.01 µM, first compound 0.00949 µM): 104%
- viability, T/C (second compound 0.01 µM, first compound 0.03 µM): 90.9%
- viability, T/C (second compound 0.01 µM, first compound 0.0949 µM): 90.4%
- viability, T/C (second compound 0.01 µM, first compound 0.3 µM): 65.2%
- viability, T/C (second compound 0.01 µM, first compound 0.949 µM): 72.8%
- viability, T/C (second compound 0.01 µM, first compound 3 µM): 61.4%
- viability, T/C (second compound 0.0316 µM, first compound 0.00949 µM): 95.4%
- viability, T/C (second compound 0.0316 µM, first compound 0.03 µM): 96%
- viability, T/C (second compound 0.0316 µM, first compound 0.0949 µM): 84.8%
- viability, T/C (second compound 0.0316 µM, first compound 0.3 µM): 77.3%
- viability, T/C (second compound 0.0316 µM, first compound 0.949 µM): 67.8%
- viability, T/C (second compound 0.0316 µM, first compound 3 µM): 52.3%
- viability, T/C (second compound 0.1 µM, first compound 0.00949 µM): 78.8%
- viability, T/C (second compound 0.1 µM, first compound 0.03 µM): 82.9%
- viability, T/C (second compound 0.1 µM, first compound 0.0949 µM): 71.5%
- viability, T/C (second compound 0.1 µM, first compound 0.3 µM): 65%
- viability, T/C (second compound 0.1 µM, first compound 0.949 µM): 53%
- viability, T/C (second compound 0.1 µM, first compound 3 µM): 40.4%
- viability, T/C (second compound 0.316 µM, first compound 0.00949 µM): 76.5%
- viability, T/C (second compound 0.316 µM, first compound 0.03 µM): 89.5%
- viability, T/C (second compound 0.316 µM, first compound 0.0949 µM): 66%
- viability, T/C (second compound 0.316 µM, first compound 0.3 µM): 54.8%
- viability, T/C (second compound 0.316 µM, first compound 0.949 µM): 38.7%
- viability, T/C (second compound 0.316 µM, first compound 3 µM): 23.6%
- viability, T/C (second compound 1 µM, first compound 0.00949 µM): 84.5%
- viability, T/C (second compound 1 µM, first compound 0.03 µM): 70.2%
- viability, T/C (second compound 1 µM, first compound 0.0949 µM): 57%
- viability, T/C (second compound 1 µM, first compound 0.3 µM): 38.4%
- viability, T/C (second compound 1 µM, first compound 0.949 µM): 25.4%
- viability, T/C (second compound 1 µM, first compound 3 µM): 13.5%
